Read-outs that look alike come from different tables or passages of the source.
How the values were obtained:
Format in all cases: biochemical
[1] = target: ATRA 4-hydroxylase (Mesocricetus auratus, UniProt A0A1U7QD41); assay: Hamster liver microsome assay of ATRA metabolism (ATRA 4-hydroxylase inhibition)
Description: Washed hamster liver microsomes were prepared as follows: Livers are removed from sacrificed animals, rinsed in ice-cold 0.9% NaCl solution and homogenized in a 3-fold volume of 0.25 M sucrose-0.05 M Tris-HCl (pH 7.4) using a blender. Microsomes are isolated by differential centrifugation (10,000×g, 20 minutes; 100,000×g, 60 minutes; 4° C.) using a well-known technique (Van Wauwe, J.; Van Nyen, G.; Coene, M-C.; Stoppie, P.; Cols, W.; Goossens, J, Borghgraef, P.; Janssen, P A J, Liarozole, an Inhibitor of Retinoic Acid Metabolism, Exerts Retinoid-Mimetic Effects, In Vivo. J. Pharmacol. Expt. Ther. 261, 773-779, 1992). The microsomes are suspended in PBS buffer (pH 7.4), in 1 ml aliquots and stored at −70° C. until required.
The standard reaction mixture (total of 400 μl) is composed of assay buffer, 140 μl; microsomes, 100 μl ([…]); NADPH, 100 μl ([…]); and a C-4 substituted ATRA analog dissolved in DMSO, 40 μl. After a 3 minute preincubation at 37° C., the reaction is initiated by addition of 20 μl of [11,12-^3H]-ATRA (20 μCi/ml). The incubation is carried out for 30 minutes under oxygen with shaking in a water bath at 37° C. The reaction is stopped by acidification with 0.1 ml formic acid, and the samples are extracted (×2) with EtOAc (2 ml) containing 0.05% butylated hydroxyanisole. The combined organic extracts are evaporated in vacuo, dissolved in 200 μl of the mobile phase for HPLC. An aliquot is analyzed for tritium content by liquid scintillation spectrometry. Usually, >95% of the added radioactivity is recovered. Most of the samples (150 μl) are analyzed on a 10 (m C18 Bondapak column (3.9×300 mm, Millipore), eluted with a multi-linear gradient solvent system: i, MeOH—H2O—HCOOH (60:40:0.05) containing 10 mM ammonium acetate (100 (0%) and ii, MeOH (0 (100%) at 2 ml/min. The radioactivity is measured by an on-line radio-detector. The Rts of ATRA, 4-hydroxy-ATRA and 4-oxo-ATRA are determined by UV absorbance at 350 nm in separate cuvettes. Typically, 80±5% of [11, 12-^3H]ATRA is converted into the metabolites.
The C-4 substituted ATRA analogs are tested at two concentrations, 500 and 1000 nM. IC50 and Ki values are determined.
Incubation of [11,12-^3]ATRA with hamster liver microsomes as described above results in the formation of polar metabolites, including 4-hydroxy-ATRA and 4-oxo-ATRA (see FIG. 7A). […] VN/14-1RA inhibits cytochrome P450-dependent metabolism of ATRA.
Table 2B represents repeated testing of some of the compounds in Table 2A and testing on additional compounds. For comparison, the IC50 values of liarozole and ketoconazole (known inhibitors of ATRA 4-hydroxylase) were also determined.

[2] = target: T1, CYP19 (aromatase) (Homo sapiens, UniProt P11511); assay: Selectivity: effect on CYP19 (aromatase); conditions: concentration as high as 5 μM
T1 sequence (P11511 1-503): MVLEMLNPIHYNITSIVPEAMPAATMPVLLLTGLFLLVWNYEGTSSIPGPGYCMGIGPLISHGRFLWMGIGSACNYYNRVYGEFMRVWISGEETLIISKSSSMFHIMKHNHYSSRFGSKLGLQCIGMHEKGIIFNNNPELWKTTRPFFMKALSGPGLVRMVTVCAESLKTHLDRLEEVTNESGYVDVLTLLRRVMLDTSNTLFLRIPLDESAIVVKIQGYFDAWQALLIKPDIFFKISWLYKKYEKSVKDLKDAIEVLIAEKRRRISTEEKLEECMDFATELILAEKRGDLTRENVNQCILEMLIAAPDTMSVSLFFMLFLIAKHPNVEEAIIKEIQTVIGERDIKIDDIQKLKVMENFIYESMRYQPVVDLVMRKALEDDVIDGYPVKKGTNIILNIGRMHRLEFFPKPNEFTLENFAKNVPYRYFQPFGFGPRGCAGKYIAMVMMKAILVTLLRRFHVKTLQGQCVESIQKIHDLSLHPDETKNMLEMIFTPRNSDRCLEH
Description: (§1) The selectivity of the compounds of the present invention towards ATRA-4-hydroxylase was tested by measuring the effect on the key enzymes in the biosynthesis of estradiol and dehydroepiandrosterone, CYP19 (aromatase) and CYP17 (17-lyase), respectively.

[3] = target: T2, CYP17 (17-lyase) (Homo sapiens, UniProt P05093); assay: Selectivity: effect on CYP17 (17-lyase); conditions: concentration as high as 5 μM
T2 sequence (P05093 1-508): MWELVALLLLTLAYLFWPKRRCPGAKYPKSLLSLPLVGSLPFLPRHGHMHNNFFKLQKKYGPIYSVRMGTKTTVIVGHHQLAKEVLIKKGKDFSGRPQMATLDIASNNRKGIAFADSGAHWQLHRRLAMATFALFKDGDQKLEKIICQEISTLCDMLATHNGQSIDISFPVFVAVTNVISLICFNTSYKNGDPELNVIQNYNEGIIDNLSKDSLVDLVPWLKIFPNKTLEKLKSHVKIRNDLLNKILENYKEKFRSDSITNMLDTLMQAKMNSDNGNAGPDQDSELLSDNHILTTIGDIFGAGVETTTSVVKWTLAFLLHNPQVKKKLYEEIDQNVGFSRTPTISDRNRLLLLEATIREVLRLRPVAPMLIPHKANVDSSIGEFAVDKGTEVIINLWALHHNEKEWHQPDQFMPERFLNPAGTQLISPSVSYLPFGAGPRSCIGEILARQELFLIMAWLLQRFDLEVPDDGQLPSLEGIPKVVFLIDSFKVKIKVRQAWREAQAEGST
Description: as §1

Sequence of ATRA 4-hydroxylase (A0A1U7QD41 entry or part of it): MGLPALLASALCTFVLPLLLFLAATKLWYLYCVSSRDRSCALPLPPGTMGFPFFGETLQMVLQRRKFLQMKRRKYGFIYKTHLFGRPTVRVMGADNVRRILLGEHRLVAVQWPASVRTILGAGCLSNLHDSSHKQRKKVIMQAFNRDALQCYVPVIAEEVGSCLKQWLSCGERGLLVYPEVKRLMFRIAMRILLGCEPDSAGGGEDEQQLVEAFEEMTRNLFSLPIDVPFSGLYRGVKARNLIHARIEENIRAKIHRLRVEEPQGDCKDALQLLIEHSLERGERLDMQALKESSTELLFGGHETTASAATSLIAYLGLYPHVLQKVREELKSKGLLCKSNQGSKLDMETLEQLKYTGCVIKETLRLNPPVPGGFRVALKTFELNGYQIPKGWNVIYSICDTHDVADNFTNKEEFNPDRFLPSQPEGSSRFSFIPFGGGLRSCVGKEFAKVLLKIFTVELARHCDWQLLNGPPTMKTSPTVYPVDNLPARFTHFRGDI

| Structure (SMILES) | fold more potent than liarozole ([1]; ratio of IC50 values, liarozole IC50 6,000 nM) | inhibition of CYP19 (aromatase) [2] | inhibition of CYP17 (17-lyase) [3] | microsomal conversion of ATRA to polar metabolites ([1]; 1 μM compound, hamster liver microsomes, FIG. 7B) | IC50 ([1]; hamster liver microsomes, Table 2A, initial testing, read-out: IC50 Value) | IC50 ([1]; hamster liver microsomes, Table 2B, repeated testing and additional compounds, read-out: IC50 Value, Inhibition of ATRA 4-Hydroxylase) |
| --- | --- | --- | --- | --- | --- | --- |
| CC(C=CC1=C(C)C(n2ccnc2)CCC1(C)C)=CC=CC(C)=CC(=O)n1ccnc1 (stereo not shown) [VN/50A-1] | 240,000 fold | barely inhibited | barely inhibited |  |  |  |
| CC1=C(/C=C/C(C)=C/C=C/C(C)=C/C(=O)O)C(C)(C)CCC1n1ccnc1 (racemic) [VN/14-1, (±)-4-(1H-imidazole-1-yl)retinoic acid] |  | barely inhibited | barely inhibited | significantly suppressed | 100 ± 1 nM | 1.2 ± 0.072 nM |
| CC(C=CC1=C(C)C(n2ccnc2)CCC1(C)C)=CC=CC(C)=CC(=O)Nc1ccc(O)cc1 (racemic) [VN/66-1, (±)-4-(1H-imidazol-1-yl), N-(4′-hydroxyphenyl)retinamide] |  | barely inhibited | barely inhibited |  |  |  |

Reference: patent US20120122908A1, “Novel C-4 Substituted Retinoids” (University of Maryland, priority 2000, published 2012)
